In patent US12071414B2, “Apelin receptor agonists and methods of use thereof” (Sanford Burnham Prebys Medical Discovery Institute, priority 2015, dated 2024):

target: T1, human apelin receptor (APJ, AGTRL-one, APLNR) (Homo sapiens, UniProt P35414); assay: cell-based cAMP TR-FRET assay of apelin receptor activation; conditions: CHO cells expressing human APJ, forskolin-stimulated cAMP, 0.5 h incubation, 50% of control (apelin-13, 1 nM) response; read-out: Potency Category (EC50)
T1 construct: host or cells: Chinese hamster ovary cells, stably integrated receptor
T1 sequence (P35414 1-380): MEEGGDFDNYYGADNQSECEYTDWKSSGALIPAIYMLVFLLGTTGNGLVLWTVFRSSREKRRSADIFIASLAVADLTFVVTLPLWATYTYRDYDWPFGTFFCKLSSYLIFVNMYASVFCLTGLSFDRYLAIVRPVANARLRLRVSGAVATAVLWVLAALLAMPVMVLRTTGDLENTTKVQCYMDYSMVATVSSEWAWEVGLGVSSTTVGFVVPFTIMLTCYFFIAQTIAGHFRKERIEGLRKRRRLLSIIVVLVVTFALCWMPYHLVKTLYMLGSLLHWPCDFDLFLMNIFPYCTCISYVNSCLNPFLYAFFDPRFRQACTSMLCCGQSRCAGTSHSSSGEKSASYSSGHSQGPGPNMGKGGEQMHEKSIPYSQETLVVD
Description: The assays disclosed herein were performed using cell lines from DiscoveX, Inc. Biological activity was determined to the cell—based assay. This assay detects activation of the receptor by reporting on intracellular cyclic adenosine monophosphate (cAMP) level. Chinese hamster ovary cells engineered to express the stably integrated human apelin receptor (APJ, AGTRL—one, APLNR), pleaded into the wells of the microtiter plate. Cells were stimulated with […] to increase intracellular cyclic AMP. Immediately following, compounds were added to the range of final concentrations 0.0-100 μM, in DMSO (not to exceed a final DMSO concentration greater than 1% ν/ν), and allowed to incubate with the cells for 0.5 h. At the end of the incubation, cells were lysed to stop APJ signaling and cAMP was quantified using a commercially available competitive immunoassay kit that applies homogenous time—resolved florescence energy transfer (TR—FRET). The assay is based on the competition between a europium (Eu) chelate—labeled cAMP donor tracer and cellular cAMP for binding sites on a cAMP—specific monoclonal antibody labeled with an acceptor fluorophore. When antibodies are bound to the cAMP tracer light emissions at 320 nm stimulate the energy transfer from the donor to the acceptor, which in turn emits light at 665 nm. In the presence of competitive unlabeled cAMP (derived from the activity of the receptor or forskolin-stimulated production of cAMP), the labelled cAMP tracer is dissociated from the cAMP antibody, resulting in a loss of FRET signal. The amount of light emitted by the FRET is inversely proportional to the cAMP generated by the cell/receptor system. Potency and efficacy at APJ are reported in reference to the canonical APJ receptor agonist apelin—13 when tested at 1 nM. […] Compound efficacy (% response) is reported as a percentage of the maximal apein-13 response at 1 nM (control). Potencies were calculated by fitting a […] logistic curve to concentration response consisting of at least 10 discrete data points spanning effective range of the compounds in the cell-based assay that measures cAMP. […] Category B is 200-500 nM; Category C is 100-200 nM; Category D is 50-100 nM; and Category E is <50 nM.

EC50 | SMILES
> 500 nM | CCS(=O)(=O)c1ccc(C(Oc2ccc3ccccc3c2)C(=O)Nc2nc3cc(OC)c(OC)cc3s2)cc1 (stereo not drawn)
< 50 nM | CCS(=O)(=O)c1ccc(C(Oc2ccc(C#N)cc2Cl)C(=O)Nc2nc3cc(OC)c(OC)cc3s2)cc1 (stereo not drawn)
> 500 nM | COc1ccc(OC(C(=O)Nc2nc3cc(OC)c(OC)cc3s2)c2cccc(S(=O)(=O)c3ccc(F)cc3)c2)cc1 (stereo not drawn)
> 500 nM | COc1cc2nc(NC(=O)Cc3cccc(S(=O)(=O)C(C)C)c3)sc2cc1OC
< 50 nM | CCS(=O)(=O)c1ccc(C(Oc2ccc(C#N)cc2C)C(=O)Nc2nc3cc(OC)c(OC)cc3s2)cc1 (stereo not drawn)
> 500 nM | COc1cc2nc(NC(=O)Cc3cccc(C(=O)N(C)C)c3)sc2cc1OC
50 to 100 nM | CCCCS(=O)(=O)c1cccc(C(Oc2ccc(C#N)cc2)C(=O)Nc2nc3cc(OC)c(OC)cc3s2)c1 (stereo not drawn)
< 50 nM | COCCOc1ccc(C(Oc2ccc(C#N)cc2)C(=O)Nc2nc3cc(OC)c(OC)cc3s2)cc1 (stereo not drawn)
< 50 nM | COc1cc2nc(NC(=O)C(Oc3ccc(C#N)cc3)c3ccccc3S(=O)(=O)Cc3ccccc3)sc2cc1OC (stereo not drawn)
200 to 500 nM | CCc1ccc(OC(C(=O)Nc2nc3cc(OC)c(OC)cc3s2)c2ccc(S(=O)(=O)CC)cc2)cc1 (stereo not drawn)
> 500 nM | CCS(=O)(=O)c1ccc(C(Cc2ccccc2)C(=O)Nc2nc3cc(OC)c(OC)cc3s2)cc1 (stereo not drawn)
< 50 nM | CCS(=O)(=O)c1ccc(C(Oc2ccc(C#N)cc2)C(=O)Nc2nc3ccc(OC)c(OC(C)C)c3s2)cc1 (stereo not drawn)
> 500 nM | CCS(=O)(=O)c1ccc(C(OCC2CCOCC2)C(=O)Nc2nc3cc(OC)c(OC)cc3s2)cc1 (stereo not drawn)
< 50 nM | COc1ccc(C(Oc2ccc(C#N)cc2)C(=O)Nc2nc3cc(OC)c(OC)cc3s2)cc1 (stereo not drawn)
> 500 nM | CCS(=O)(=O)c1ccc(C(Oc2ccc(C#N)cc2)C(=O)Nc2nc3cc(F)c(OC)cc3s2)cc1 (stereo not drawn)
200 to 500 nM | COCCNS(=O)(=O)c1ccc(C(Oc2ccc(C#N)cc2)C(=O)Nc2nc3cc(OC)c(OC)cc3s2)cc1 (stereo not drawn)
< 50 nM | COc1ccc(OC(C(=O)Nc2nc3cc(OC)c(OC)cc3s2)c2ccc(C#N)cc2)cc1 (stereo not drawn)
> 500 nM | CCS(=O)(=O)c1ccc(C(Oc2ccccc2Cl)C(=O)Nc2nc3cc(OC)c(OC)cc3s2)cc1 (stereo not drawn)
> 500 nM | CCS(=O)(=O)c1ccc(C(Oc2ccc(OCc3ccccc3)cc2)C(=O)Nc2nc3cc(OC)c(OC)cc3s2)cc1 (stereo not drawn)
> 500 nM | CCS(=O)(=O)c1ccc(C(Oc2ccc(C#N)cc2)C(=O)Nc2nc3ccc(OCCN4CCN(C)CC4)cc3s2)cc1 (stereo not drawn)
< 50 nM | COc1cc2nc(NC(=O)C(Oc3ccc(C#N)cc3)c3ccc(S(=O)(=O)N(C)C)cc3)sc2cc1OC (stereo not drawn)

EC50 | SMILES
50 to 100 nM | COc1cc2nc(NC(=O)C(Oc3ccc(C(=O)NCCN(C)C)cc3)c3ccc(C#N)cc3)sc2cc1OC (stereo not drawn)
> 500 nM | CCS(=O)(=O)c1ccc(CC(=O)Nc2nc3c(OC)ccc(OC)c3s2)cc1
100 to 200 nM | COc1cc2nc(NC(=O)C(Oc3ccc(OCCN(C)C)cc3)c3ccc(C#N)cc3)sc2cc1OC (stereo not drawn)
> 500 nM | CCC(C(=O)Nc1nc2cc(OC)c(OC)cc2s1)c1ccc(S(=O)(=O)CC)cc1 (stereo not drawn)
100 to 200 nM | COc1cc2nc(NC(=O)C(Oc3ccc(C#N)cc3)c3ccc(C(=O)NCCN4CCOCC4)cc3)sc2cc1OC (stereo not drawn)
> 500 nM | CCS(=O)(=O)c1ccc(C(C(=O)Nc2nc3cc(OC)c(OC)cc3s2)N2CCOCC2)cc1 (stereo not drawn)
200 to 500 nM | COc1cc2nc(NC(=O)C(Oc3ccc(C#N)cc3)c3ccc(C(=O)N4CCN(C)CC4)cc3)sc2cc1OC (stereo not drawn)
> 500 nM | COc1cc2nc(NC(=O)C(Oc3ccc(C#N)cc3)c3ccc(C(F)(F)F)cc3)sc2cc1OC (stereo not drawn)
> 500 nM | CCN(CC)c1ccc2sc(NC(=O)Cc3ccc(S(=O)(=O)CC)cc3)nc2c1
< 50 nM | CCCCS(=O)(=O)c1ccc(C(Oc2ccc(C#N)cc2)C(=O)Nc2nc3cc(OC)c(OC)cc3s2)cc1 (stereo not drawn)
50 to 100 nM | CCS(=O)(=O)c1ccc(C(Oc2ccc(C#N)c(C)c2)C(=O)Nc2nc3cc(OC)c(OC)cc3s2)cc1 (stereo not drawn)
> 500 nM | CCS(=O)(=O)c1ccc(C(Oc2ccccc2)C(=O)Nc2nc3cc(OC)c(OC)cc3s2)cc1 (stereo not drawn)
> 500 nM | COc1cc2nc(NC(=O)Cc3ccc(S(=O)(=O)C(C)C)cc3)sc2cc1OC
200 to 500 nM | COc1cc2nc(NC(=O)C(Oc3ccc(C#N)cc3)c3ccc(C(=O)NCCN4CCCC4)cc3)sc2cc1OC (stereo not drawn)
> 500 nM | CCS(=O)(=O)c1ccc(C(OCC=C(C)C)C(=O)Nc2nc3cc(OC)c(OC)cc3s2)cc1 (stereo not drawn)
> 500 nM | CCS(=O)(=O)c1ccc(C(Oc2cccc(C#N)c2)C(=O)Nc2nc3cc(OC)c(OC)cc3s2)cc1 (stereo not drawn)
< 50 nM | COc1cc2nc(NC(=O)C(Oc3ccc(C#N)cc3)c3ccc(C#N)cc3)sc2cc1OC (stereo not drawn)
> 500 nM | CCS(=O)(=O)c1ccc(C(OCCC(C)C)C(=O)Nc2nc3cc(OC)c(OC)cc3s2)cc1 (stereo not drawn)
200 to 500 nM | COc1cc2nc(NC(=O)C(Oc3ccc(C(=O)NCCN4CCCC4)cc3)c3ccc(C#N)cc3)sc2cc1OC (stereo not drawn)
> 500 nM | COc1ccc(OC(C(=O)Nc2nc3cc(OC)c(OC)cc3s2)c2ccccc2S(=O)(=O)c2ccc(F)cc2)cc1 (stereo not drawn)
200 to 500 nM | CCCOc1ccc(OC(C(=O)Nc2nc3cc(OC)c(OC)cc3s2)c2ccc(S(=O)(=O)CC)cc2)cc1 (stereo not drawn)

EC50 | SMILES
< 50 nM | COc1cc2nc(NC(=O)C(Oc3ccc(C#N)cc3)c3ccc(OC(C)C)cc3)sc2cc1OC (stereo not drawn)
50 to 100 nM | COc1cc2nc(NC(=O)C(Oc3ccc(C#N)cc3)c3ccc(C)cc3)sc2cc1OC (stereo not drawn)
> 500 nM | COc1cc2nc(NC(=O)C(Oc3ccc(C#N)cc3)c3cccc(Br)c3)sc2cc1OC (stereo not drawn)
< 50 nM | COc1cc2nc(NC(=O)C(Oc3ccc(C#N)cc3)c3ccc([N+](=O)[O-])cc3)sc2cc1OC (stereo not drawn)
> 500 nM | CCS(=O)(=O)c1ccc(CC(=O)Nc2nc3cc(OC)c(OC)cc3o2)cc1
> 500 nM | CCS(=O)(=O)c1ccc(C(Oc2ccc(C#N)cc2)C(=O)Nc2nc3nc(OCCOC)c(OC)cc3s2)cc1 (stereo not drawn)
200 to 500 nM | COc1cc2nc(NC(=O)C(Oc3ccc(C#N)cc3)c3cccc(S(=O)(=O)c4ccc(F)cc4)c3)sc2cc1OC (stereo not drawn)
> 500 nM | COc1cc2nc(NC(=O)Cc3ccc(S(=O)(=O)N(C)C)cc3)sc2cc1OC
200 to 500 nM | COc1cc2nc(NC(=O)C(Oc3ccc(C(=O)NCCO)cc3)c3ccc(C#N)cc3)sc2cc1OC (stereo not drawn)
> 500 nM | COCCS(=O)(=O)c1ccc(CC(=O)Nc2nc3cc(OC)c(OC)cc3s2)cc1
> 500 nM | CCS(=O)(=O)c1ccc(CC(=O)Nc2nc3cc4c(cc3s2)OCCO4)cc1
< 50 nM | CCS(=O)(=O)c1ccc(C(Oc2ccc([N+](=O)[O-])cc2)C(=O)Nc2nc3cc(OC)c(OC)cc3s2)cc1 (stereo not drawn)
> 500 nM | CCS(=O)(=O)c1ccc(C(OCCOC)C(=O)Nc2nc3cc(OC)c(OC)cc3s2)cc1 (stereo not drawn)
100 to 200 nM | COc1cc2nc(NC(=O)C(Oc3ccc(C#N)cc3)c3ccccc3)sc2cc1OC (stereo not drawn)
200 to 500 nM | CCS(=O)(=O)c1ccc(C(C(=O)Nc2nc3cc(OC)c(OC)cc3s2)C(C)C)cc1 (stereo not drawn)
< 50 nM | COc1cc2nc(NC(=O)C(Oc3ccc(C#N)cc3)c3ccc(S(=O)(=O)C(C)C)cc3)sc2cc1OC (stereo not drawn)
> 500 nM | CCS(=O)(=O)c1ccc(C(C(=O)Nc2nc3cc(OC)c(OC)cc3s2)C2CCCC2)cc1 (stereo not drawn)
> 500 nM | CCS(=O)(=O)c1ccc(C(Oc2ccc(C#N)cc2)C(=O)Nc2nc3c4c(ccc3s2)OCO4)cc1 (stereo not drawn)
> 500 nM | CCS(=O)(=O)c1ccc(C(Nc2cccc(C)c2)C(=O)Nc2nc3cc(OC)c(OC)cc3s2)cc1 (stereo not drawn)
< 50 nM | CCS(=O)(=O)c1ccc(C(Nc2ccc(C#N)cc2)C(=O)Nc2nc3cc(OC)c(OC)cc3s2)cc1 (stereo not drawn)
> 500 nM | CCN(CC)c1ccc2sc(NC(=O)C(Oc3ccc(C#N)cc3)c3ccc(S(=O)(=O)CC)cc3)nc2c1 (stereo not drawn)
